Laboratory results taken from PubChem BioAssay (NCI).
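A five-concentration, 48-hour dose response in 96-well plates underlies each endpoint, interpolated linearly between surrounding concentrations. Here, GI50 denotes the concentration required for 50% inhibition of growth. TGI denotes the concentration required for complete inhibition of growth.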

How the values were obtained:
Test in all cases: growth of human tumour cells (NCI), 48 h
[1] = tested on: RXF 393 renal
[2] = tested on: SK-MEL-5 melanoma
[3] = tested on: SF-539 CNS
[4] = tested on: HCT-116 colon
[5] = tested on: KM12 colon
[6] = tested on: TK-10 renal
[7] = tested on: HL-60(TB) leukemia
[8] = tested on: SNB-75 CNS
[9] = tested on: IGROV1 ovarian
[10] = tested on: NCI/ADR-RES ovarian

SMILES: COCCCNC(=O)C1C(=O)N(CCCOC)C(=O)/C1=N\N (stereo not drawn)
- TGI [1]: > 100 µM
- TGI [2]: > 100 µM
- TGI [3]: > 100 µM
- TGI [4]: > 100 µM
- TGI [5]: > 100 µM
- TGI [6]: > 100 µM
- TGI [7]: > 100 µM
- TGI [8]: > 100 µM

SMILES: CC(=O)[CH-]C(C)=O.CC(=O)[CH-]C(C)=O.[CH2-]CCC.[CH2-]CCC.[Sn+4]
- GI50 [1]: 0.0699 µM
- TGI [1]: 0.292 µM
- GI50 [2]: 0.848 µM
- TGI [2]: 2.15 µM
- GI50 [3]: 0.61 µM
- TGI [3]: 1.91 µM
- GI50 [4]: 0.65 µM
- TGI [4]: 1.96 µM
- GI50 [5]: 1.11 µM
- TGI [5]: 2.33 µM
- GI50 [6]: 0.423 µM
- TGI [6]: 1.36 µM
- GI50 [9]: 1.23 µM
- TGI [9]: 2.66 µM
- GI50 [7]: 0.347 µM
- TGI [7]: 2.73 µM
- GI50 [8]: 0.509 µM
- TGI [8]: 1.79 µM

SMILES: c1cc(N(CCn2cccn2)CCn2cccn2)cc(N(CCn2cccn2)CCn2cccn2)c1
- TGI [1]: > 100 µM
- TGI [2]: > 100 µM
- TGI [4]: > 100 µM
- TGI [5]: > 100 µM
- TGI [6]: > 100 µM
- TGI [7]: > 100 µM
- TGI [8]: > 100 µM

SMILES: COC(=O)[C@@H](C)C[C@H](Cc1ccccc1)NC(=O)c1csc(CC[C@H](C(C)C)N(C)C(=O)[C@@H](NC(=O)[C@H]2CCCCN2C)C(C)C)n1
- GI50 [2]: 0.0981 µM
- TGI [2]: 0.747 µM
- GI50 [3]: 0.444 µM
- TGI [3]: 1.91 µM
- GI50 [10]: 3.46 µM
- TGI [10]: > 33.3 µM
- GI50 [4]: 0.235 µM
- TGI [4]: > 14.8 µM
- GI50 [5]: 0.324 µM
- TGI [5]: > 33.3 µM
- GI50 [6]: > 15.2 µM
- TGI [6]: > 33.3 µM
- GI50 [9]: 0.291 µM
- TGI [9]: > 33.3 µM
- GI50 [7]: 0.0799 µM
- TGI [7]: 0.298 µM
- GI50 [8]: 0.222 µM
- TGI [8]: 9.2 µM

SMILES: Nc1ccccc1C(=O)CC1OC(=O)c2ccccc21 (stereo not drawn)
- TGI [3]: > 100 µM
- TGI [10]: > 100 µM
- TGI [4]: > 100 µM
- TGI [5]: > 100 µM
- TGI [6]: > 100 µM
- TGI [9]: > 100 µM
- TGI [7]: > 100 µM
- TGI [8]: > 100 µM

SMILES: CCC[CH2][Sn]1([CH2]CCC)[O]CC(Cc2ccccc2)[O]1 (stereo not drawn)
- GI50 [1]: 1.47 µM
- TGI [1]: 2.84 µM
- GI50 [2]: 3.09 µM
- TGI [2]: 14.2 µM
- GI50 [3]: 1.87 µM
- TGI [3]: 4.15 µM
- GI50 [4]: 3.75 µM
- TGI [4]: 13.5 µM
- GI50 [5]: 3.77 µM
- TGI [5]: 14.4 µM
- GI50 [6]: 2.64 µM
- TGI [6]: 7.27 µM
- GI50 [9]: 3.8 µM
- TGI [9]: 13.8 µM
- GI50 [7]: 0.51 µM
- TGI [7]: 2.31 µM
- GI50 [8]: 2.76 µM
- TGI [8]: 7.74 µM

SMILES: COc1ccc2c(c1)N1CCc3cc(OC)c(OC)cc3C1C2 (stereo not drawn)
- TGI [1]: > 100 µM
- TGI [3]: > 100 µM
- TGI [5]: > 100 µM
- TGI [6]: > 100 µM
- TGI [9]: > 100 µM
- TGI [7]: > 100 µM

SMILES: Cc1sc2nc(-c3ccncc3)c(/C=N/N=C(N)N)n2c1C
- GI50 [2]: 38.3 µM
- TGI [2]: > 100 µM
- GI50 [3]: 51.9 µM
- TGI [3]: > 100 µM
- GI50 [10]: > 100 µM
- TGI [10]: > 100 µM
- GI50 [4]: 27.7 µM
- TGI [4]: 81.8 µM
- GI50 [5]: 14.7 µM
- TGI [5]: 37.2 µM
- GI50 [6]: > 100 µM
- TGI [6]: > 100 µM
- GI50 [7]: 21.7 µM
- TGI [7]: > 100 µM
- GI50 [8]: 89.8 µM
- TGI [8]: > 100 µM

SMILES: C=C1C(=O)O[C@@H]2C[C@@H](C)[C@@H]3C=CC(=O)[C@@]3(C)[C@@H](OC(=O)CC(=O)O[C@H]3[C@@H]4C(=C)C(=O)O[C@@H]4C[C@@H](C)[C@@H]4C=CC(=O)[C@]43C)[C@H]12
- TGI [1]: 0.0258 µM
- TGI [2]: 0.215 µM
- TGI [3]: 0.0781 µM
- TGI [4]: 0.0398 µM
- TGI [5]: 0.16 µM
- TGI [6]: 0.47 µM
- TGI [9]: 0.595 µM
- TGI [8]: 1.54 µM

SMILES: CN(C)CC(C)(C)C(=O)/C=C/c1ccc(/C=C/C(=O)C(C)(C)CN(C)C)cc1
- TGI [1]: 2.66 µM
- TGI [2]: 5.13 µM
- TGI [3]: 3.81 µM
- TGI [4]: 2.55 µM
- TGI [5]: 3.25 µM
- TGI [6]: 3.03 µM
- TGI [9]: 3.33 µM
- TGI [7]: 4.17 µM
- TGI [8]: 3.05 µM

SMILES: Cc1[nH]c2ccccc2c1C(=O)CC1(O)C(=O)Nc2ccccc21 (stereo not drawn)
- TGI [1]: > 100 µM
- TGI [2]: > 100 µM
- TGI [3]: > 100 µM
- TGI [4]: > 100 µM
- TGI [5]: > 100 µM
- TGI [6]: > 100 µM
- TGI [9]: > 100 µM
- TGI [7]: > 100 µM
- TGI [8]: > 100 µM

SMILES: O=C(O)CCCCCCC[C@H]1S[C@H]1CCCCCCO
- TGI [1]: > 100 µM
- TGI [2]: > 100 µM
- TGI [3]: > 100 µM
- TGI [4]: > 100 µM
- TGI [5]: > 100 µM
- TGI [6]: > 100 µM
- TGI [9]: > 100 µM
- TGI [7]: > 100 µM

SMILES: COc1ccc(S(=O)(=O)Nc2ccccc2C(=O)O)cc1
- TGI [1]: > 100 µM
- TGI [2]: > 100 µM
- TGI [3]: > 100 µM
- TGI [5]: > 100 µM
- TGI [6]: > 100 µM
- TGI [9]: > 100 µM
- TGI [7]: > 100 µM
- TGI [8]: > 100 µM

SMILES: C#Cc1cccc(N2C(=O)CCC2=O)c1
- TGI [2]: 37.1 µM
- TGI [3]: 46.9 µM
- TGI [4]: 23.1 µM
- TGI [5]: 19.5 µM
- TGI [6]: 29.9 µM
- TGI [9]: 37.9 µM
- TGI [7]: 10.4 µM
- TGI [8]: 26.8 µM

SMILES: C=C(COC(C)=O)CC(OC(C)=O)c1ccccc1 (stereo not drawn)
- TGI [1]: > 100 µM
- TGI [2]: > 100 µM
- TGI [3]: > 100 µM
- TGI [4]: > 100 µM
- TGI [5]: > 100 µM
- TGI [6]: > 100 µM
- TGI [9]: > 100 µM
- TGI [7]: > 100 µM
- TGI [8]: > 100 µM
